Starred links: 1 amine or outer side, 2 acyl side, 3 side chain; linkers in the order of their positions; H or OH if unused. Positions of bridges follow the written chain, without caps; N, C: chain ends. Non-standard residues stand in square brackets, D forms with d. Residues, ends and D or L forms follow the SMILES beside them. *: point of attachment. hPhe(3-Cl-4-CF3) = N[C@@H](CCc1ccc(C(F)(F)F)c(Cl)c1)C(=O)O; 3Oxa8azabicyclo(3.2.1)octane = C1CC2COCC1N2*; NMeAbu(4,4,4-F3) = CN[C@@H](CC(F)(F)F)C(=O)O; NMePhe(4-Cl) = CN[C@@H](Cc1ccc(Cl)cc1)C(=O)O; X33 = Cc1ccc(CC[C@H](N[*:1])C(=O)[*:2])cc1; NMedβ3hAla = C[C@H](CC(=O)[*:2])N(C)[*:1]; NMeAla(cPent) = CN[C@@H](CC1CCCC1)C(=O)O; NMePhe(2-F) = CN[C@@H](Cc1ccccc1F)C(=O)O; Phe(3-I) = N[C@@H](Cc1cccc(I)c1)C(=O)O; dαMeGly(allyl) = C=CC[C@@](C)(N)C(=O)O; NMeAla(cPr) = CN[C@@H](CC1CC1)C(=O)O; NMeCha = CN[C@@H](CC1CCCCC1)C(=O)O; Pro(4-oxo) = O=C1CN[C@H](C(=O)O)C1; NMeChg = CN[C@H](C(=O)O)C1CCCCC1; NMeD = CN[C@@H](CC(=O)O)C(=O)O; NMeL = CN[C@@H](CC(C)C)C(=O)O; NEtAla = CCN[C@@H](C)C(=O)O; NMeV = CN[C@H](C(=O)O)C(C)C; NMeS = CN[C@@H](CO)C(=O)O; NMeA = CN[C@@H](C)C(=O)O; Nle = CCCC[C@H](N)C(=O)O; Piperidide = C1CCN(*)CC1; Ac5c = NC1(C(=O)O)CCCC1; Sar = CNCC(=O)O
Key:
[1] = test system: Human pancreatic cancer cell line AsPC-1; experiment: Measurement of AsPC-1 cell growth inhibition (AsPC-1 CGI); format: cell-based; details: 96 h
Method in brief: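 AsPC-1 cells in 15% FBS RPMI-1640 were exposed to test compound for 96 hours at 37° C, with CellTiter-Glo as endpoint.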

[2] = biological target: T1, Kras and SOS1 (biotin-tagged human Kras loaded with GDP, His-tagged human SOS1) (Homo sapiens, UniProt P01116, G12D); experiment: Protein-protein interaction inhibition between Kras and SOS1 (KrasGl2D-SOS PPI) using AlphaScreen; format: binding; details: AlphaScreen; biotin-tagged human Kras loaded with GDP, His-tagged human SOS1; read-out: KRAS G12D-SOS PPI IC50
T1 construct: made in house; host or cells: E. coli (stated for Kras only)
T1 sequence (P01116 1-188 isoform P01116-2 G12D): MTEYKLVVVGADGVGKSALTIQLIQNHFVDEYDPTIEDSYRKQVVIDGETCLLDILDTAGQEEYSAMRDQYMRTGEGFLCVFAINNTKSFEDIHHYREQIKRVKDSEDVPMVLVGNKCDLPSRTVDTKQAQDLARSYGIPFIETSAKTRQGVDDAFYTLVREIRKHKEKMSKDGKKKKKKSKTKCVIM
Method in brief: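 Donor beads (nickel) hold His-SOS1; acceptor beads (streptavidin) hold biotin-Kras bound to GDP. Signal measured at 520-620 nm following 680 nm excitation.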

| Structure (SMILES) | IC50 [1] | IC50 [2] |
| --- | --- | --- |
| CC[C@H](C)[C@@H]1NC(=O)[C@H](CC(C)C)N(C)C(=O)C[C@@H](C)N(C)C(=O)[C@H](CC2CC2)N(C)C(=O)C2(CCCC2)NC(=O)[C@@H]2CCCN2C(=O)[C@H](CCc2ccc(C(F)(F)F)c(Cl)c2)NC(=O)CN(C)C(=O)[C@H](CC2CCCCC2)N(C)C(=O)CN(C)C(=O)CN(C)C1=O [Compound 1019] (cyclo([Ac5c][NMeAla(cPr)][NMedβ3hAla][NMeL]I[Sar][Sar][NMeCha][Sar][hPhe(3-Cl-4-CF3)]P)) | 100 to 500 nM | 14 nM |
| CC[C@H](C)[C@@H]1NC(=O)[C@H](CC(C)C)N(C)C(=O)C[C@@H](C(=O)N2CCCCC2)N(C)C(=O)[C@H](C2CCCCC2)N(C)C(=O)C2(CCCC2)NC(=O)[C@@H]2CC(=O)CN2C(=O)[C@H](CCc2ccc(C(F)(F)F)c(Cl)c2)NC(=O)CN(C)C(=O)[C@H](CC2CCCCC2)N(C)C(=O)CN(C)C(=O)CN(C)C1=O [Compound 1022] ([NMeL]I[Sar][Sar][NMeCha][Sar][hPhe(3-Cl-4-CF3)][Pro(4-oxo)][Ac5c][NMeChg][NMeD]-Piperidide; lactam N-11) | 100 to 500 nM | 0.42 nM |
| CCCC[C@@H]1NC(=O)[C@H](Cc2cccc(I)c2)NC(=O)CN(C)C(=O)[C@H](Cc2ccc(Cl)cc2)N(C)C(=O)CN(C)C(=O)CN(C)C(=O)[C@H]([C@@H](C)CC)NC(=O)[C@H](CC(C)C)N(C)C(=O)C[C@@H](C(=O)N2CCCCC2)N(C)C(=O)[C@H](CC(C)C)NC(=O)[C@H](Cc2ccccc2F)N(C)C1=O [Compound 1035] ([NMeL]I[Sar][Sar][NMePhe(4-Cl)][Sar][Phe(3-I)][Nle][NMePhe(2-F)]L[NMeD]-Piperidide; lactam N-11) | 100 to 500 nM | 11 nM |
| CC[C@H](C)[C@@H]1NC(=O)[C@H](COC)N(C)C(=O)C[C@@H](C(=O)N2CCCCC2)N(C)C(=O)[C@H](C2CCCCC2)N(C)C(=O)C2(CCCC2)NC(=O)[C@@H]2CCCN2C(=O)[C@H](CCc2ccc(C(F)(F)F)c(Cl)c2)NC(=O)CN(C)C(=O)[C@H](CC2CCCCC2)N(C)C(=O)CN(C)C(=O)CN(C)C1=O [Compound 1037] ([NMeS](Me)I[Sar][Sar][NMeCha][Sar][hPhe(3-Cl-4-CF3)]P[Ac5c][NMeChg][NMeD]-Piperidide; lactam N-11) | 50 to 100 nM | 0.66 nM |
| C=CC[C@@]1(C)NC(=O)[C@@H]2CCCN2C(=O)[C@H](CCc2ccc(C(F)(F)F)c(Cl)c2)NC(=O)CN(C)C(=O)[C@H](CC2CCCCC2)N(C)C(=O)CN(C)C(=O)CN(C)C(=O)[C@H]([C@@H](C)CC)NC(=O)[C@H](CC(C)C)N(C)C(=O)C[C@@H](C)N(C)C(=O)[C@H](C(C)C)N(C)C1=O [Compound 1038] (cyclo(I[Sar][Sar][NMeCha][Sar][hPhe(3-Cl-4-CF3)]P[dαMeGly(allyl)][NMeV][NMedβ3hAla][NMeL])) | 100 to 500 nM | 18 nM |
| CC[C@H](C)[C@@H]1NC(=O)[C@H](C)N(CC)C(=O)C[C@@H](C(=O)N2CCCCC2)N(C)C(=O)[C@H](C(C)C)N(C)C(=O)C2(CCCC2)NC(=O)[C@@H]2CCCN2C(=O)[C@H](CCc2ccc(C(F)(F)F)c(Cl)c2)NC(=O)CN(C)C(=O)[C@H](CC2CCCCC2)N(C)C(=O)CN(C)C(=O)CN(C)C1=O [Compound 1051] ([NEtAla]I[Sar][Sar][NMeCha][Sar][hPhe(3-Cl-4-CF3)]P[Ac5c][NMeV][NMeD]-Piperidide; lactam N-11) | 100 to 500 nM | 2.9 nM |
| CC[C@H](C)[C@@H]1NC(=O)[C@H](C)N(C)C(=O)C[C@@H](C(=O)N2CCCCC2)N(C)C(=O)[C@H](C2CCCCC2)N(C)C(=O)C2(CCCC2)NC(=O)[C@@H]2CCCN2C(=O)[C@H](CCc2ccc(C)cc2)NC(=O)CN(C)C(=O)[C@H](CC2CCCCC2)N(C)C(=O)CN(C)C(=O)CN(C)C1=O [Compound 1055] ([NMeA]I[Sar][Sar][NMeCha][Sar][X33]P[Ac5c][NMeChg][NMeD]-Piperidide; lactam N-11) | 100 to 500 nM | 2.2 nM |
| CC[C@H](C)[C@@H]1NC(=O)[C@H](CC(F)(F)F)N(C)C(=O)C[C@@H](C(=O)N2C3CCC2COC3)N(C)C(=O)[C@H](C2CCCCC2)N(C)C(=O)C2(CCCC2)NC(=O)[C@@H]2CCCN2C(=O)[C@H](CCc2ccc(C(F)(F)F)c(Cl)c2)NC(=O)CN(C)C(=O)[C@H](CC2CCCC2)N(C)C(=O)CN(C)C(=O)CN(C)C1=O [Compound 1057] ([NMeAbu(4,4,4-F3)]I[Sar][Sar][NMeAla(cPent)][Sar][hPhe(3-Cl-4-CF3)]P[Ac5c][NMeChg][NMeD]-{3Oxa8azabicyclo(3.2.1)octane}; lactam N-11) | 100 to 500 nM | 1.2 nM |

From patent US12371454B2, “Cyclic peptide compound having Kras inhibitory action” (priority 2019, dated 2025)
